Laboratory results as given in publication PMC9894920, “Development of an improved and specific inhibitor of NADPH oxidase 2 to treat traumatic brain injury” (Redox Biology, 2023).

Legend:
[1] = target: T1, Bovine Xanthine Oxidase (Bos taurus, UniProt P80457); assay: Xanthine oxidase / hypoxanthine luminol chemiluminescence assay; assay type: biochemical; details: xanthine oxidase with hypoxanthine; mean ± SD, n in cell; read-out: X/XO IC50
T1 construct: purchased Sigma
Method: Bovine Xanthine Oxidase (Sigma) was dialyzed in PBS to remove ammonium sulfate and stored at 4 °C. Hypoxanthine was prepared by heating in DMSO. Reactions were prepared by diluting xanthine oxidase in HBSS (final concentration 1.25 mU/mL) that contained 50 μM luminol and were preincubated 5 min with control or inhibitor before the addition of hypoxanthine at a final concentration of 0.5 mM. Luminescence was measured at 24 °C as described above.

[2] = target: T2, NOX5 (Homo sapiens, UniProt Q96PH1); assay: Expi293 whole cell assay, NOX5 overexpression; assay type: cell-based; details: highest dose about 100x the IC50 versus NOX2
T2 sequence (Q96PH1 1-719 isoform Q96PH1-4): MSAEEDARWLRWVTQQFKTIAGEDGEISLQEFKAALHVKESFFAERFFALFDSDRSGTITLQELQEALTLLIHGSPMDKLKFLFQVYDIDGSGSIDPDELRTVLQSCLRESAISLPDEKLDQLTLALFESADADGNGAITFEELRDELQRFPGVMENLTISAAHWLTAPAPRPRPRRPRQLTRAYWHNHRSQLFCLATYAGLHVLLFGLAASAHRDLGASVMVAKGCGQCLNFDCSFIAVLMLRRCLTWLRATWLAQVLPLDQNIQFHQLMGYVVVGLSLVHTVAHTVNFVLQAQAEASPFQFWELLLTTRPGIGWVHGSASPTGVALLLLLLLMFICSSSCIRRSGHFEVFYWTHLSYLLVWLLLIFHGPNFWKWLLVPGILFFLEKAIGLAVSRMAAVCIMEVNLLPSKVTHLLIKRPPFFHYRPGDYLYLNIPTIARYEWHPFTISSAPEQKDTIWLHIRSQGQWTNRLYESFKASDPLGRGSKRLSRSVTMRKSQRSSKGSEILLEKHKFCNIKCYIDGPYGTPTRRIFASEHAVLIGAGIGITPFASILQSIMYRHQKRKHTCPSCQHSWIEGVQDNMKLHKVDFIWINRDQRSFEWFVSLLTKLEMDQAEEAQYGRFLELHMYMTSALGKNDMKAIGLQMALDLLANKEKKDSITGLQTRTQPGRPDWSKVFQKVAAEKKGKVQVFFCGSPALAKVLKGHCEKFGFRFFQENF
Method: Given concerns about previous assays for specific NOX family members we here report the first use of the Expi293 Expression System (Thermo Scientific) to overexpress NOX1, 2, 3, 4, and 5 in excess of any endogenous NOX proteins present in these cells. Transfections were performed following the manufacturer's instructions using the plasmids for each NOX as described in Supplemental Table 2 except that the enhancer solution provided with the Expi293 system was not used because it promoted enzyme activation.
After the times indicated in Supplemental Table 2, cells were washed and 50,000 added per well of a white 96-well plate (Greiner) along with 50 μM Luminol and 2.5 U horseradish peroxidase/mL in a volume of 90 μl for NOX1, NOX2, and NOX5. Inhibitors or vehicle controls were added and cells were incubated for 20 min at 37 °C prior to activation with the indicated stimuli. For NOX3 and NOX4 (constitutively active), cells were incubated with inhibitor or vehicle control prior to the addition of luminol and HRP. Chemiluminescence was measured every 2 min for 1 s per well at 37 °C in a Varioscan Multimode reader. AUC data were analyzed using GraphPad Prism using non-linear regression analysis after expressing relative to control alone (maximum ROS production).

[3] = Rat liver microsomal stability; assay type: in vitro ADME; details: SD, rat, liver microsomes, read-out: Rat_SD/Microsomes t1/2 (m)
Method: (§1) The rat liver microsomal stability, parallel artificial membrane permeability assay (PAMPA), and aqueous kinetic solubility assay in phosphate-buffered saline (PBS) buffer were performed as described in the indicated references.

[4] = system: NOX3 reconstituted with p47phox and p67phox; assay: NOX3 reconstituted with cytosolic phox proteins (p47phox and p67phox), data not shown; assay type: cell-based
From the text: (§2) Another experiment (data not shown) examined the potency of NCATS-SM7270 against NOX1 and NOX3 reconstituted with cytosolic phox proteins (p47phox and p67phox).

[5] = system: mTBI induced cortical cell death; assay: Focal cortical mTBI model, transcranial administration, cortical cell death (propidium iodide); assay type: in vivo, mouse
[6] = system: NOX1 reconstituted with p47phox and p67phox; assay: NOX1 reconstituted with cytosolic phox proteins (p47phox and p67phox), data not shown; assay type: cell-based
From the text: as §2

[7] = Parallel artificial membrane permeability assay (PAMPA); assay type: in vitro ADME; details: pH 7.4, PAMPA, pH7.4, read-out: Permeability(pH7.4) (PAMPA_Pion_Lipid 1e-6 cm/s)
Method: as §1

T1 sequence (P80457 whole entry): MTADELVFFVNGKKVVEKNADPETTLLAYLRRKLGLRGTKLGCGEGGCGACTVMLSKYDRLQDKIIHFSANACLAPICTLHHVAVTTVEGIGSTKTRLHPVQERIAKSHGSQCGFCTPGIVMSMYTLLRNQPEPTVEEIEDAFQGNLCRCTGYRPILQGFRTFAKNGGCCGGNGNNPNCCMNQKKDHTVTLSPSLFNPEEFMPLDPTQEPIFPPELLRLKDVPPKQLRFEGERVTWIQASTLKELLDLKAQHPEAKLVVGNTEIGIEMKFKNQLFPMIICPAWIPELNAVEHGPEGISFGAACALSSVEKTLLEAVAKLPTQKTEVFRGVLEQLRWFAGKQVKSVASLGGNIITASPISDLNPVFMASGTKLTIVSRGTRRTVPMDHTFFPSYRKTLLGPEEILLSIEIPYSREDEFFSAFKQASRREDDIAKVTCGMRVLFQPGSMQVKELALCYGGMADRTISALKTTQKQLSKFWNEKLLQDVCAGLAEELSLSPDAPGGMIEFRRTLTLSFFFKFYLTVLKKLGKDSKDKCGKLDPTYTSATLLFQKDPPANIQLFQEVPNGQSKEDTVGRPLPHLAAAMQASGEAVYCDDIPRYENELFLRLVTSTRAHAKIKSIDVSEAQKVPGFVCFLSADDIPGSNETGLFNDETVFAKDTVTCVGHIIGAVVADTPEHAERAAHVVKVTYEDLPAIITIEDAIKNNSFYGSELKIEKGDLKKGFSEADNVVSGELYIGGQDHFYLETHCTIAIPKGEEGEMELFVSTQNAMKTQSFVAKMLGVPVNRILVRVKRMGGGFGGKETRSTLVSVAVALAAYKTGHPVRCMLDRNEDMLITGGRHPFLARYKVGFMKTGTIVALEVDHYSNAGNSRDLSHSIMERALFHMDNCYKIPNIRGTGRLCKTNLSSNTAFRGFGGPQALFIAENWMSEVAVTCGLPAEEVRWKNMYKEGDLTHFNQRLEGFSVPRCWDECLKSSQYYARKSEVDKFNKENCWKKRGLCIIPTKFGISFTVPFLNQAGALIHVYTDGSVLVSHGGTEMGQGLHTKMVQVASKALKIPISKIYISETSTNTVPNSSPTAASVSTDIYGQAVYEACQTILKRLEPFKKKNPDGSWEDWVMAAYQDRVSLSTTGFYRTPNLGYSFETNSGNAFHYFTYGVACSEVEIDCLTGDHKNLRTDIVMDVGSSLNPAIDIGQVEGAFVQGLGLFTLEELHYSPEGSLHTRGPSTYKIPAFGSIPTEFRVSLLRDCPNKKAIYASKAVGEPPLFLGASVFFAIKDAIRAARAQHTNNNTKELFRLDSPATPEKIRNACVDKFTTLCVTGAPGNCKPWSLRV

Compound: Cn1ccc(S(=O)(=O)Nc2ccnc3c2c(-c2ccc4ccn(C)c4c2)cn3C2CC2)n1 [NCATS-SM7270, N-(1-cyclopropyl-3-(1-methyl-1H-indol-6-yl)-1H-pyrrolo [2,3-b]pyridin-4-yl)-1-methyl-1H-pyrazole-3-sulfonamide]
- IC50 [1]: 4.1 ± 5.66 µM
- activity against NOX5 [2]: only marginal activity at the highest dose tested
- half-life [3]: 3.7 min
- dose needed to observe inhibition of NOX3 versus NOX2 [4]: ~10 fold
- cortical cell death in NOX1 deficient mice ([5]; NOX1 KO mice, 40 μM transcranial): had no impact
- cortical cell death in NOX2 deficient mice ([5]; NOX2 KO mice, 40 μM transcranial): had no impact
- cortical cell death in NOX4 KO mice ([5]; NOX4 KO mice, 40 μM transcranial): significantly reduced cortical cell death
- reduction of cortical cell death ([5]; WT mice, 40 μM transcranially immediately after mTBI): ~50%
- dose dependence of reduction in mTBI induced cortical cell death ([5]; WT mice, transcranial, titration 10, 50 or 100 μM): dose-dependent reduction
- dose needed to observe inhibition of NOX1 versus NOX2 [6]: ~10 fold
- Papp [7]: 999 ×10⁻⁶ cm/s
